Patent US20240408067A1, “SOLID STATE FORMS OF NIROGACESTAT SALTS” (TEVA PHARMACEUTICALS INTERNATIONAL GMBH, priority 2021, published 2024)
Structures can show the parent of a compound that is named as a salt. One block for each molecule: values may come before it.

Key:
Assay type in all cases: physicochemical
[1] = Stability under pressure of 2 tons
[2] = Storage stability at different relative humidities, ambient temperature, 7 days (XRPD)
Experimental: (§1) X-ray diffraction was performed on X-Ray powder diffractometer: Bruker D8 Advance; CuKα radiation (λ=1.5418 Å); Lynx eye detector; laboratory temperature 22-25° C.; PMMA specimen holder ring with silicon low background. Prior to analysis, the samples were gently ground by means of mortar and pestle in order to obtain a fine powder. The ground sample was adjusted into a cavity of the sample holder and the surface of the sample was smoothed by means of a cover glass. • Scan range: 2-40 degrees 2-theta; • Scan mode: continuous; • Step size: 0.05 degrees; • Time per step: 0.5 s; • Sample spin: 30 rpm; • Sample holder: PMMA specimen holder ring with silicon low background. Samples of Nirogacestat dihydrobromide Form NT1 and Nirogacestat hydrobromide Form NHBr1 were subjected to conditions of different relative humidity at ambient temperature. XRPD analysis was performed on the samples after 7 days.

[3] = Thermal stability, heating up to 100° C. (XRPD); conditions: heating up to 100° C. for 30 minutes
Experimental: as §1, with “to heating up to 100° C. for 30 minutes.” for “to conditions of different relative humidity at ambient temperature.”, “analysis of” for “analysis was performed on”, “the sample confirmed there to be no change in the starting material (Table 4): […]” for “the samples after 7 days.”

[4] = Storage stability at different relative humidity and temperatures, 6 months (XRPD); conditions: for XRPD analysis results, 25° C., 60% RH / XRPD analysis results, 40° C., 75% RH: 6 months
Experimental: as §1, with “NT1” for “NT1 and Nirogacestat hydrobromide Form NHBr1”, “different temperatures.” for “ambient temperature.”, “6 months.” for “7 days.”

[5] = Grinding experiments (strong grinding, solvent drop grinding; XRPD); conditions: for XRPD analysis results, strong grinding: about 20 mg ground with a pestle for 2 minutes, sample alone; for Stability to solvent drop grinding: isopropanol or no solvent
Experimental: X-ray diffraction was performed on X-Ray powder diffractometer: Bruker D8 Advance; CuKα radiation (λ=1.5418 Å); Lynx eye detector; laboratory temperature 22-25° C.; PMMA specimen holder ring with silicon low background. Prior to analysis, the samples were gently ground by means of mortar and pestle in order to obtain a fine powder. The ground sample was adjusted into a cavity of the sample holder and the surface of the sample was smoothed by means of a cover glass. • Scan range: 2-40 degrees 2-theta; • Scan mode: continuous; • Step size: 0.05 degrees; • Time per step: 0.5 s; • Sample spin: 30 rpm; • Sample holder: PMMA specimen holder ring with silicon low background. […] […] In these experiments, about 20 mg of the sample is placed in a mortar and ground with a pestle for 2 minutes. The solvent, when used, was added to the crystalline material before grinding, in a volume of 10 microlitres. XRPD analysis performed on the sample after the grinding experiment, confirmed no change in the starting material (Table 3):

[6] = listed as Form NT1 of Nirogacestat dihydrobromide, dihydrobromide salt
[7] = listed as Nirogacestat dihydrobromide Form NT1, dihydrobromide salt
[8] = listed as Nirogacestat dihydrobromide form NT1, dihydrobromide salt
[9] = listed as Form NT1, dihydrobromide salt
[10] = listed as Form NHBr1 of Nirogacestat hydrobromide, hydrobromide salt
[11] = listed as Nirogacestat hydrobromide Form NHBr1, hydrobromide salt

Stability under pressure [1]: stable | XRPD analysis results, relative humidity 20% ([2]; 20% RH, ambient temperature, 7 days, listed as Form NT1, dihydrobromide salt): stable | XRPD analysis results, relative humidity 40% ([2]; 40% RH, ambient temperature, 7 days, listed as Form NT1, dihydrobromide salt): stable | XRPD analysis results, relative humidity 60% ([2]; 60% RH, ambient temperature, 7 days, listed as Form NT1, dihydrobromide salt): stable | XRPD analysis results, relative humidity 80% ([2]; 80% RH, ambient temperature, 7 days, listed as Form NT1, dihydrobromide salt): stable | Stability after exposure to high and low relative humidity ([2]; at least 7 days, summary of Table 1): stable | Result, heating 100° C., 30 minutes ([3]; dihydrobromide salt): Stable | Result, heating 100° C., 30 minutes [3, 6]: stable | Result, heating 100° C., 30 minutes [3, 7]: no change | Result, heating 100° C., 30 minutes [3, 8]: stable | XRPD analysis results, 25° C., 60% RH [4, 9]: stable | XRPD analysis results, 25° C., 60% RH [4, 7]: No change | XRPD analysis results, 40° C., 75% RH [4, 9]: stable | XRPD analysis results, 40° C., 75% RH [4, 7]: No change | Stability after exposure to high and low relative humidity at different temperatures ([4]; at least 6 months, summary of Table 2): stable | XRPD analysis results, strong grinding ([5]; dihydrobromide salt): No change | XRPD analysis results, strong grinding [5, 6]: stable | XRPD analysis results, strong grinding [5, 7]: no change | XRPD analysis results, strong grinding [5, 8]: stable | XRPD analysis results, solvent-drop grinding (ethanol) ([5]; ground 2 minutes, 10 microlitres solvent, ethanol): No change | XRPD analysis results, solvent-drop grinding (water) ([5]; ground 2 minutes, 10 microlitres solvent, water): No change | Stability to solvent drop grinding [5, 7]: no change | Stability to solvent drop grinding [5, 8]: stable | Resistance to polymorphic changes on grinding ([5]; summary of Table 3): resistant to polymorphic changes
Compound: CCC[C@H](N[C@H]1CCc2cc(F)cc(F)c2C1)C(=O)Nc1cn(C(C)(C)CNCC(C)(C)C)cn1 [Nirogacestat dihydrobromide salt]

Result, heating 100° C., 30 minutes ([3]; hydrobromide salt): Stable | Result, heating 100° C., 30 minutes [3, 10]: stable | Result, heating 100° C., 30 minutes [3, 11]: no change | XRPD analysis results, strong grinding ([5]; hydrobromide salt): No change | XRPD analysis results, strong grinding [5, 10]: stable | XRPD analysis results, strong grinding [5, 11]: no change | Stability to solvent drop grinding [5, 11]: no change
Compound: CCC[C@H](N[C@H]1CCc2cc(F)cc(F)c2C1)C(=O)Nc1cn(C(C)(C)CNCC(C)(C)C)cn1 [Nirogacestat hydrobromide salt]
